From US20040146987A1, “Rapidly degraded reporter fusion proteins” (Promega Corporation, priority 2002, published 2004)
Like-named read-outs stand apart in the source and are kept apart here.

Key:
[1] = system: protein synthesis; assay: inhibition of protein synthesis by cycloheximide; format: cell-based; settings: 100 μg/ml
Method: The half-life of the protein encoded by plasmid pUbiq(Y)Luc 19 was determined in mammalian cells and compared to the half-lives of wild-type luciferase as well as fusion proteins comprising firefly luciferase and a mutant form of the C-ODC (Luc-PEST10). This was done by evaluating the luminescence emitted by cells that were transiently transfected with either plasmid pUbiq(Y)Luc19 or pwtLuc1 or pLuc-PEST 10, respectively, and then, for different periods of time, were exposed to the protein synthesis inhibitor cycloheximide. […] The estimated half-life of Ubiq(Y)Luc in these cells is about 170-200 minutes, which is far longer than the half-lives reported by Varshavsky (1992) for P-galactosidase containing a tyrosine residue at the N-terminus both in E. coli and S. cerevisiae (2 and 10 minutes, respectively).

[2] = system: COS-7 cells; assay: cycloheximide treatment of transiently transfected COS-7 cells, luminescence of accumulated luciferase; format: cell-based, African green monkey; settings: cycloheximide 100 μg/ml
Method: For transfection, cells were grown to confluence in T25 flasks (Falkon, Becton Dickinson, Oxford). Transfection was conducted in 1 ml of serum-free RPMI-1640 that was mixed with 8 μg of plasmid DNA and 20 μl of Lipofectamine™2000 (GIBCO BRL). CHO cells were incubated in the transfection media for 30 minutes, HeLa cells for 1 hour, and COS-7 cells for 5 hours. Following incubation, cells were trypsinized with Trypsin-EDTA (GIBCO BRL) and collected by centrifugation. […]
To determine firefly luciferase activity, cells were lysed by freeze/thawing. Lysate from each well (100 μl) was transferred into corresponding wells of opaque 96 well plates (Falkon, Becton Dickinson, Oxford) containing 100 μl of Bright-Glo™ Luciferase Assay System (Promega) and luminescence intensity was determined using MLX Microtiter Plate Luminometer (Dynex). The activity of Renilla luciferase was measured by mixing 40 μl samples with 100 μl of assay reagent from the Renilla Luciferase Assay System (Promega).
The half-life of the protein encoded by plasmid pUbiq(Y)Luc 19 was determined in mammalian cells and compared to the half-lives of wild-type luciferase as well as fusion proteins comprising firefly luciferase and a mutant form of the C-ODC (Luc-PEST10). […]

[3] = literature; cited from earlier work
[4] = system: E. coli; settings: cited from earlier work
[5] = system: S. cerevisiae; settings: yeast / S. cerevisiae, cited from earlier work

C[C@@H]1C[C@@H]([C@H](O)CC2CC(=O)NC(=O)C2)C(=O)[C@@H](C)C1 [cycloheximide]
time to complete inhibition of protein synthesis [1]: ≤ 7.5 min

wild-type luciferase: wild-type firefly luciferase encoded by plasmid pwtLuc1
half-life [2]: about 7 hours
half-life [3]: about 3.68 hours

β-galactosidase
half-life [4]: more than 10 hours
half-life [5]: 20 h
half-life ([5]; listed as wild-type P-galactosidase): > 20 h
